Reference: paper PMC5638327, “Comparison of bioavailability and antiplatelet action of ticagrelor in patients with ST-elevation myocardial infarction and non-ST-elevation myocardial infarction: A prospective, observational, single-centre study” (PLoS ONE, 2017)

Tests used:
[1] = set-up: method as in PMID 20551239; details: blood plasma, after ticagrelor; cited from earlier work
[2] = Pharmacokinetic assessment: plasma concentrations by liquid chromatography tandem mass spectrometry after ticagrelor loading dose; type: in vivo, human (patients with myocardial infarction); details: for AUC(0–6) / AUC(0–12): oral 180 mg ticagrelor LD, plasma, median [interquartile range]
Protocol: Consecutive STEMI and NSTEMI patients admitted to the study site (Cardiology Department, Dr. A. Jurasz University Hospital, Bydgoszcz, Poland) were screened for eligibility. After admission to the study centre, confirmation of the initial diagnosis of STEMI or NSTEMI, and provision of a written informed consent to participate in the trial, all study participants received an oral 300 mg LD of plain aspirin (Polpharma SA, Starogard Gdański, Poland) and 180 mg LD ticagrelor in integral tablets with 250 mL tap water. Subsequently, within 15 minutes of ticagrelor LD, all patients underwent coronary angiography followed by PCI as required. During the periprocedural period, all study participants received unfractionated heparin in body weight adjusted dose according to the European Society of Cardiology (ESC) recommendations. Plasma concentrations of ticagrelor and its active metabolite, as well as their antiplatelet effect, were evaluated according to the sampling schedule employed at our centre in previous PK/PD study (pre-treatment, 0.5 h, 1 h, 2 h, 3 h, 4 h, 6 h and 12 h post ticagrelor LD).
Blood samples for PK/PD evaluation were obtained from an 18-gauge cannula inserted into one of the forearm veins. The first 5 mL blood was discarded to avoid spontaneous platelet activation. In each patient specimens were collected at the eight pre-defined time. Detailed description of blood sample processing has been published in the study protocol (S1 File).
Ticagrelor and AR-C124910XX plasma concentrations were analyzed with liquid chromatography coupled with tandem mass spectrometry, using a validated method. Lower limits of quantification were 4.69 ng/mL for both ticagrelor and AR-C124910XX.
Statistical calculations were performed using the Statistica 12.5 package (StatSoft, Tulsa, OK, USA). Pharmacokinetic calculations and plots were made using the Matlab R2014 software (Mathworks, Natick, MA, USA); trapezoidal rule was applied to calculate AUC. Data for pharmacokinetic features of ticagrelor and AR-C124910XX, pharmacodynamic outcome variables, creatinine, glomerular filtration rate and left ventricle ejection fraction were presented as medians and interquartile ranges. Data for heart rate, systolic and diastolic blood pressure, age and body mass index were presented as means with standard deviations. […] Continuous variables were compared between both study groups with the Student’s t-test and Mann-Whitney U test, depending on the presence or absence of the normal distribution (as assessed by the Shapiro-Wilk test). Comparisons between categorical variables were performed by the chi-square test, with Yates's correction if necessary, or using Fisher's exact test. […]
Blood samples for pharmacokinetic and phar- infarction; PCI, percutaneous coronary intervention; PD, macodynamic assessment will be drawn at eight prede- pharmacodynamics; PK, pharmacokinetics; STEMI, ﬁned time points according to the blood sampling ST-elevation myocardial infarction. schedule already used at our site in a previous study
( pretreatment baseline, 30 min, 1, 2, 3, 4, 6 andsamples will be stored at temperature below −60°C until 12 hours post-ticagrelor LD— as shown in ﬁgure 1). 31 analysed.
All enrolled patients with ﬁnally unconﬁrmed initial Venous blood for the assessment of pharmacodynam-diagnosis of AMI will be excluded from the primar y ana- ics with the vasodilator-stimulated phosphoprotein lysis. Patients qualiﬁed for urgent coronar y arter y bypass (VASP) assay and multiple electrode aggregometr y surgery within the blood sampling period also will not (MEA) will be collected into trisodium citrate and be included in the analysis. All study participants not hirudin vacuum test tubes, respectively. The ﬁrst 3–5mL receiving PCI will be reported. of blood will be discarded to avoid spontaneous platelet Study population activation. The pharmacodynamic analysis will be per- […]

platelet reactivity [3] = system: platelet reactivity; set-up: method as in PMID 27885888; details: STEMI patients, first hour after ticagrelor LD, parenteral; cited from earlier work
platelet reactivity [4] = system: platelet reactivity; set-up: method as in PMID 27366874; details: STEMI patients on prasugrel with concomitant morphine, intravenous; cited from earlier work

CCCSc1nc(N[C@@H]2C[C@H]2c2ccc(F)c(F)c2)c2nnn([C@@H]3C[C@H](O)[C@@H](O)[C@H]3O)c2n1 [AR-C124910XX]
plasma concentration relative to the main compound [1]: 30–40% | AUC(0–6) ([2]; NSTEMI patients (n = 24)): 712 [346–1616] ng*h/mL | AUC(0–12) ([2]; NSTEMI patients): 1523 [1005–2867] ng*h/mL | AUC(0–6) ([2]; STEMI patients (n = 49)): 473 [0–924] ng*h/mL | AUC(0–12) ([2]; STEMI patients): 1383 [766–2182] ng*h/mL | lower AUC(0–6) in STEMI than in NSTEMI patients ([2]; first 6 h after 180 mg ticagrelor LD): 34%

CSCCNc1nc(SCCC(F)(F)F)nc2c1ncn2[C@@H]1O[C@H](COP(=O)(O)OP(=O)(O)C(Cl)(Cl)P(=O)(O)O)[C@@H](O)[C@H]1O [cangrelor]
effect on platelet reactivity and HPR (platelet reactivity [3]): markedly reduced platelet reactivity and basically eliminated HPR phenomenon

B1: abciximab (antibody, chains of the INN, looked up, V domains shown)
VH: EVQLQQSGTVLARPGASVKMSCEASGYTFTNYWMHWVKQRPGQGLEWIGAIYPGNSDTSYIQKFKGKAKLTAVTSTTSVYMELSSLTNEDSAVYYCTLYDGYYVFAYWGQGTLVTVSA
VL: EIVLTQSPVTLSVTPGDSVSLSCRASRDISNNLHWFQQTSHESPRLLIKYASQSMSGIPSRFSGSGSGTDFTLSINSVETEDFGMYFCQQTNSWPYTFGGGTKLEIK
modifications: Fab
platelet inhibition (platelet reactivity [4]): immediate and efficient platelet inhibition
